Laboratory results published in ChEMBL document CHEMBL1134073 (Bioorg Med Chem Lett, 2001).

Experiments:
MT4 = assay: Antiviral activity against HIV in presence of 50% human serum in MT-4 cell was determined; assay type: functional, cell-based
[1] = biological target: Human immunodeficiency virus type 1 protease (Human immunodeficiency virus 1, UniProt Q72874); assay: Inhibitory activity against HIV protease

| Ki [1] [nM] | SMILES | EC50 (MT4) [nM] |
| --- | --- | --- |
| 0.0007 | Cc1cccc(C)c1OCC(=O)N[C@@H](Cc1ccccc1)[C@@H](O)C[C@H](Cc1ccccc1)NC(=O)[C@H](C(C)C)N1CCC(=O)NC1=O | 1410 |
| 0.0012 | Cc1cccc(C)c1OCC(=O)N[C@@H](Cc1ccccc1)[C@@H](O)C[C@H](Cc1ccccc1)NC(=O)[C@H](C(C)C)N1CCC(O)NC1=O (stereo not given in full) | 2310 |
| – | Cc1cccc(C)c1OCC(=O)N[C@@H](Cc1ccccc1)[C@@H](O)C[C@H](Cc1ccccc1)NC(=O)[C@H](C(C)C)N1CCCNC1=O [LOPINAVIR] | 104 |
